Results taken from patent US20180168208A1 (priority 2014, published 2018).
Like-named read-outs stand apart in the source and are kept apart here.

Columns and labels:
T1R1/T1R3 receptor [1] = target: T1, T1R1/T1R3 receptor (Felis catus, UniProt E3UMS2); assay: cell-based
Text: (§1) HEK293 cells that stably express T1R3 and inducibly express T1R1 were exposed to nucleotide derivatives alone to activate the umami receptor. Activation of the T1R1/T1R3 receptor was detected by a change in intracellular calcium levels using a calcium sensitive fluorescent dye. Cells that express T1R3 but not T1R1 were used as a control. A FLIPR® Tetra or a FlexStation® 3 was used for data capture.
as §1, with “alone or in combination with one or more amino acids and/or one or more nucleotides” for “alone”, “dye and/or a luminescent reporter system.” for “dye.”
as §1, with “transmembrane compounds” for “nucleotide derivatives”, “alone or in combination with one or more amino acids and/or one or more nucleotides” for “alone”
In each experiment, serial dilutions of up to 10 mM of the transmembrane compound were added to the T1R1/T1R3-expressing cells.

T1R1/T1R3 receptor [2] = target: T1, T1R1/T1R3 receptor; assay: Example 8: agonist screening of transmembrane compounds on T1R1/T1R3 in HEK293 cells; type: cell-based, cat; conditions: for agonist profile assessment (agonist activity): transmembrane compound alone; for T1R1/T1R3 agonist: transmembrane compound tested at 0.01, 0.1 and 1 mM, HEK293 cells expressing T1R1/T1R3, intracellular calcium
Protocol: (§2) HEK293 cells that stably express T1R3 and inducibly express T1R1 were exposed to a transmembrane compound. Activation of the T1R1/T1R3 receptor was detected by a change in intracellular calcium levels using a calcium sensitive fluorescent dye and/or a luminescent reporter system. […] A FLIPR® Tetra or a FlexStation® 3 was used for data capture.
Each transmembrane compound was tested at concentrations of 0.01 mM, 0.1 mM, and 1 mM. […] To generate the dose response curves, the transmembrane compound was tested at concentrations of between 0.0001 mM and 1.0 mM in the presence of GMP and Ala.

T1R1/T1R3 receptor [3] = target: T1, T1R1/T1R3 receptor; assay: Example 8: PAM screening of transmembrane compounds with GMP and Ala on T1R1/T1R3 in HEK293 cells; type: cell-based, cat; conditions: for PAM profile assessment (PAM activity): in the presence of GMP and Alanine; for T1R1/T1R3 PAM: compound at 0.01, 0.1 and 1 mM in combination with GMP+Ala mixtures (T1-T4), PAM if response greater than sum of compound alone and GMP+Ala alone
Text: as §2, with “to” for “to a”, “compound alone or in combination with Ala and GMP to activate the umami receptor.” for “compound.”
Dose response curves were generated for each transmembrane compound at concentrations of 0 (buffer only), 0.01, 0.1 and 1 mM, wherein each of the three concentrations of transmembrane compound was tested in combination with 0.03 mM GMP+100 mM Ala (T1); 0.6 mM GMP+10 mM Ala (T2); 0.1 mM GMP+60 mM Ala (T3) and 0.3 mM GMP+60 mM Ala (T4). The T4 mixture was also tested in a 2-fold dilution series (the T4(×) Concentration). In these experiments, the first test concentration was 2× (2 times) the T4 concentration. The subsequent test concentrations were 2-fold dilutions from that (1×, 0.5×etc.). This dilution series was tested with or without the addition of the test compound at a constant 0.3 mM concentration.
Activation of the umami receptor was also determined in the presence of 1 mM GMP+100 mM Ala to generate a “maximum” umami receptor activation level.

cat T1R1/T1R3 receptor = target: T2, cat T1R1/T1R3 receptor (Felis catus, UniProt A0ABI7Z2I4); assay: cell-based
T2 sequence (A0ABI7Z2I4 171-420): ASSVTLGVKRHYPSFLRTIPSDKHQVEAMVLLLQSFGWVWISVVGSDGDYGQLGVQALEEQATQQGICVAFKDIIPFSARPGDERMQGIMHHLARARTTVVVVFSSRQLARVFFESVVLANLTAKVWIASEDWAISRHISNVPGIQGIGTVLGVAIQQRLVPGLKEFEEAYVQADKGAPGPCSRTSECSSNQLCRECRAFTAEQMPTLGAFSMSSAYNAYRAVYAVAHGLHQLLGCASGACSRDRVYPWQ
T2 sequence (Q49KI5 25-865 E206Q/N523D/F654L partner): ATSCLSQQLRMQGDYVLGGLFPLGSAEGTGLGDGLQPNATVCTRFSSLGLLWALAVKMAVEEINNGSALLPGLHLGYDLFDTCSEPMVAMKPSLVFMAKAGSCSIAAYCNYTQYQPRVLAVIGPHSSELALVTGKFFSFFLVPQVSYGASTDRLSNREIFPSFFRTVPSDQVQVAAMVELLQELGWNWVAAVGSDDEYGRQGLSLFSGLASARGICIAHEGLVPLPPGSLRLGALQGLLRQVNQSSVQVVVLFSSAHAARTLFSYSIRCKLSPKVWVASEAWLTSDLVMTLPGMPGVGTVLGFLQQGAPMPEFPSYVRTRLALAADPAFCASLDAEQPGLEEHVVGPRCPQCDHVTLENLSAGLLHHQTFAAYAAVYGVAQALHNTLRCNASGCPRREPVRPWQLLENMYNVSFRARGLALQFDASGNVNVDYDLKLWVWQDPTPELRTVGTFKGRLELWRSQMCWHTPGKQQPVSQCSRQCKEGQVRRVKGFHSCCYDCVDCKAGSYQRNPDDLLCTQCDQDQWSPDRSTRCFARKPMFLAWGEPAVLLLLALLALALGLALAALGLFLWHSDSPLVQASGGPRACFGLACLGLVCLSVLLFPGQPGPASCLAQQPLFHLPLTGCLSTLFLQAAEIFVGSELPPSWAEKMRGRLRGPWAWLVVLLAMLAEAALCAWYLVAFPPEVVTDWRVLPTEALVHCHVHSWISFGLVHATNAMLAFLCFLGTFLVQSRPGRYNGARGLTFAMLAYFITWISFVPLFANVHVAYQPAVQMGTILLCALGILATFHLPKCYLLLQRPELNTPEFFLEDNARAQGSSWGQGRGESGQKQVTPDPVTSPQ
Outline: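 HEK293 cells stably expressing T1R3 with inducible T1R1, treated with nucleotide derivatives alone or combined with amino acids and/or nucleotides. Activation read as intracellular calcium change by calcium-sensitive fluorescent dye and/or luminescent reporter. Cells expressing T1R3 without T1R1 served as control.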

T1R1/T1R3 receptor [4] = target: T1, T1R1/T1R3 receptor; assay: cell-based; type: cell-based; conditions: EC50 (effect with 0.2 mM IMP), positive controls measured with 0.2 mM IMP
Outline: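 HEK293 cells stably expressing T1R3 with inducible T1R1 received serial dilutions of compound (up to 10 mM), alone or with amino acids and/or nucleotides. Activation was read as an intracellular calcium change with a calcium-sensitive fluorescent dye. Cells expressing T1R3 without T1R1 served as control.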

[5] = EC50 (mM), +IMP (0.2 mM), in the presence of 0.2 mM IMP
[6] = in the presence of 0.2 mM IMP, relative to alanine
[7] = threshold concentration in the presence of 0.2 mM IMP
[8] = EC50 (effect with 0.2 mM IMP), control compounds, with 0.2 mM IMP, Table 25

Structure (SMILES)	EC50 (T1R1/T1R3 receptor [1]; [5]) [mM]	Max resp % of Ala, +IMP (0.2 mM) (T1R1/T1R3 receptor [1]; [6]) [%]	Thres (mM), +IMP (0.2 mM) (T1R1/T1R3 receptor [1]; [7]) [mM]	T1R1/T1R3 agonist (T1R1/T1R3 receptor [2])	T1R1/T1R3 PAM (T1R1/T1R3 receptor [3])	EC50 (T1R1/T1R3 receptor [4]) [µM]	also measured
O=C1CC(=O)N(Cc2ccccc2)C(=O)N1Cc1ccccc1 [1,3-dibenzylpyrimidine-2,4,6(1H,3H,5H)-trione]	0.52	35.7	0.1				Max resp % of IMP, +Alanine (20 mM) (T1R1/T1R3 receptor [1]): 42.7%; Thres (mM), +Alanine (20 mM) (T1R1/T1R3 receptor [1]): 0.1 mM; EC50 (T1R1/T1R3 receptor [1]; EC50 (mM), +Alanine (20 mM)): 0.31 mM; EC50 (T1R1/T1R3 receptor [1]; EC50 (mM), +Alanine (20 mM) + IMP (0.2 mM)): > 0.3 mM; EC50 (T1R1/T1R3 receptor [1]; T1R1/T1R3 EC50 +0.2 mM IMP, +0.2 mM IMP): 0.52 ± 0.19 mM; EC50 (T1R1/T1R3 receptor [1]; T1R1/T1R3 EC50 +20 mM L-alanine): 0.31 ± 0.05 mM; EC50 (T1R1/T1R3 receptor [1]; T1R1/T1R3 EC50 +20 mM L-alanine + 0.2 mM IMP): > 0.3 mM; EC50 (T1R1/T1R3 receptor [1]; alone in buffer, read-out: T1R1/T1R3 EC50 alone in buffer): 0.26 ± 0.01 mM; EC50 (T1R1/T1R3 receptor [1]; compound alone in buffer, read-out: EC50 (mM), +buffer (alone)): 0.26 mM; agonist profile assessment (agonist activity) (T1R1/T1R3 receptor [2]): agonist activity
O=C(CN1C(=O)C(=O)N(Cc2ccccc2)C1=O)c1ccc2c(c1)OCCCO2 [1-benzyl-3-(2-(3,4-dihydro-2H-benzo[b][1,4]dioxepin-7-yl)-2-oxoethyl)imidazolidine-2,4,5-trione]							PAM profile assessment (PAM activity) (T1R1/T1R3 receptor [3]): PAM activity
O=C(CN1C(=O)C(=O)N(Cc2ccccc2)C1=O)c1ccc(Cl)s1 [1-benzyl-3-(2-(5-chlorothiophen-2-yl)-2-oxoethyl)imidazolidine-2,4,5-trione]							PAM profile assessment (PAM activity) (T1R1/T1R3 receptor [3]): PAM activity
COC(=O)[C@H](CC(C)C)NCc1ccccc1.Cl [Benzyl-L-leucine methyl ester hydrochloride]							agonist profile assessment (agonist activity) (T1R1/T1R3 receptor [2]): agonist; PAM profile assessment (PAM activity) (T1R1/T1R3 receptor [3]): PAM activity
O=C(CN1C(=O)C(=O)N(Cc2ccccc2)C1=O)c1ccccc1 [Formula 1, 1-benzyl-3-(2-oxo-2-phenylethyl)imidazolidine-2,4,5-trione]				No	No		
O=C(CN1C(=O)C(=O)N(Cc2ccccc2)C1=O)c1ccc2c(c1)CCC2 [Formula 2, 1-benzyl-3-(2-(2,3-dihydro-1H-inden-5-yl)-2-oxoethyl)imidazolidine-2,4,5-trione]				No	No		
O=C(CN1C(=O)C(=O)N(Cc2ccccc2)C1=O)c1ccc(Br)cc1 [Formula 3, 1-benzyl-3-(2-(4-bromophenyl)-2-oxoethyl)imidazolidine-2,4,5-trione]				No	No		
O=C(CN1C(=O)C(=O)N(Cc2ccccc2)C1=O)c1ccc2c(c1)OCCO2 [Formula 4, 1-benzyl-3-(2-(2,3-dihydrobenzo[b][1,4]dioxin-6-yl)-2-oxoethyl)imidazolidine-2,4,5-trione]				No	No		
COc1ccc(C(=O)CN2C(=O)C(=O)N(Cc3ccccc3)C2=O)c(OC)c1 [Formula 5, 1-benzyl-3-(2-(2,4-dimethoxyphenyl)-2-oxoethyl)imidazolidine-2,4,5-trione]				No	No		
O=C(CN1C(=O)C(=O)N(CCc2cccs2)C1=O)c1ccccc1 [Formula 6, 1-(2-oxo-2-phenylethyl)-3-(2-(thiophen-2-yl)ethyl)imidazolidine-2,4,5-trione]				No	No		
O=C(CN1C(=O)C(=O)N(CCc2cccs2)C1=O)c1ccc2c(c1)OCO2 [Formula 7, 1-(2-(benzo[d][1,3]dioxol-5-yl)-2-oxoethyl)-3-(2-(thiophen-2-yl)ethyl)imidazolidine-2,4,5-trione]				No	No		
N[C@@H](Cc1c[nH]cn1)C(=O)O [L-Histidine, L-histidine]	15.3	36.3	10.0			10200 ± 1700	EC50 (cat T1R1/T1R3 receptor; read-out: EC50): 10200 ± 1700 µM; EC50 (T1R1/T1R3 receptor [1]; [8]): 15.3 ± 3.2 mM
CSCC[C@H](N)C(=O)O [L-Methionine, methionine]						25500 ± 3700	EC50 (cat T1R1/T1R3 receptor): 25500 ± 3700 µM; Max resp % of Ala, +IMP (0.2 mM) (T1R1/T1R3 receptor [1]): 45.0%; Thres (mM), +IMP (0.2 mM) (T1R1/T1R3 receptor [1]): 30.0 mM; EC50 (T1R1/T1R3 receptor [1]; EC50 (effect with 0.2 mM IMP)): 33.9 ± 1.5 mM; EC50 (T1R1/T1R3 receptor [1]; EC50 (mM), +IMP (0.2 mM)): 33.9 mM
N[C@@H](Cc1ccccc1)C(=O)O [L-Phenylalanine, reference compound]	0.5	75.9	0.1			1900 ± 100	EC50 (cat T1R1/T1R3 receptor; read-out: EC50): 1900 ± 100 µM; EC50 (T1R1/T1R3 receptor [1]; [8]): 0.5 ± 0.1 mM; Max resp ΔF/F, +IMP (0.2 mM) (T1R1/T1R3 receptor [1]; in the presence of 0.2 mM IMP): 0.5900 ΔF/F
N[C@@H](CO)C(=O)O [L-Serine, serine]	15.1	100.0	3.0			31500 ± 2300	EC50 (cat T1R1/T1R3 receptor; read-out: EC50): 31500 ± 2300 µM; EC50 (T1R1/T1R3 receptor [1]; [8]): 15.1 ± 2.3 mM
N[C@@H](Cc1c[nH]c2ccccc12)C(=O)O [L-Tryptophan, tryptophan]	0.5	86.8	0.1			900 ± 100	EC50 (cat T1R1/T1R3 receptor; read-out: EC50): 900 ± 100 µM; EC50 (T1R1/T1R3 receptor [1]; [8]): 0.5 ± 0.1 mM
